From patent publication US20160318938A1, “CRYSTALS (2) OF PYRAZINO[2,1-c][1,2,4]TRIAZINE COMPOUND” (PRISM PHARMA CO., LTD., priority 2013, published 2016)
Entries after “also recorded” stand apart in the source; their conditions may differ.

Experiments:
Format in all cases: physicochemical
[1] = Relationship between water content of solvent and crystal form (heptane/ethanol 16:3); conditions: for crystal form: overnight
Protocol: To a saturated solution of crystal C in a mixed solvent of heptane and ethanol (volume ratio 16:3) were added crystal C (100 mg) and crystal D (100 mg) at a temperature shown in Table 2, water in the amount shown in Table 6 was further added, and the mixture was stood overnight. The water content of the solution after the standing was measured by the Karl Fischer method, and the crystal form of compound 1 was measured by powder X-ray diffraction. The amount of the water added is shown in mass % relative to the mass of the whole solvent.

[2] = Stability evaluation of crystals A, B and C (mixture of equal amounts in supersaturated solution); conditions: for form of the crystal obtained: equal amounts of crystals A, B and C, one day; for relative stability among crystals A, B and C: room temperature or 40° C.
Protocol: To a supersaturated solution of compound 1 using the solvents shown in Table 8 was added a mixture of equal amounts of crystals A, B and C at room temperature or 40° C., and the form of the crystal obtained one day later was observed using powder X-ray diffraction.

[3] = Hygroscopicity evaluation by dynamic water adsorption measuring apparatus; conditions: 25° C.; for variation in the mass (weight) with increasing relative humidity: 5-95% RH stepwise; for hygroscopicity: 5-95% RH
Protocol: The hygroscopicity of Examples 1, 3 and Comparative Example 1 was evaluated by a dynamic water adsorption measuring apparatus. A sample mounting part of the apparatus was maintained at 25° C., and the relative humidity (RH) was set stepwisely within the range of 5-95% RH. The humidity was controlled by changing the relative flow of 0% RH dry nitrogen and 100% RH humidified nitrogen. The sample weight was confirmed at 2 min intervals by a micro balance, and the humidity was sequentially changed at the time point when the weight shift range for 5 min was below 0.01%.

[4] = Thermal stability of crystals A and D (oven heating overnight, powder X-ray diffraction); conditions: for crystal form after heating: oven, overnight
Protocol: Crystals A and D were heated in an oven at 50° C. or 70° C. overnight, and transition of each crystal was confirmed by powder X-ray diffraction.

[5] = Stability evaluation of crystal A: slurry in solvents, crystal form by powder X-ray diffraction and DSC; conditions: room temperature, 2 days
Protocol: Crystal A was added in excess to the solvents described in Table 1 to give a slurry, which was stood at room temperature for 2 days, and the crystal form thereof was measured using powder X-ray diffraction and differential scanning calorimeter (DSC).

[6] = single crystal form in heptane/ethanol (16:3) with water content of less than 0.5%, stood overnight

Q: Which crystal form ([1]; crystal C + crystal D (100 mg each) in heptane/ethanol 16:3, 5° C., water added 0 mass %, water content 0.32%) does the source give for C[C@H]1C2N(C(=O)CN(C)N2C(=O)NCc2ccccc2)[C@@H](Cc2ccc(O)cc2)C(=O)N1Cc1cccc2cccnc12 (stereo partly drawn) [compound 1, (6S,9S)—N-benzyl-6-(4-hydroxybenzyl)-2,9-dimethyl-4,7-dioxo-8-(quinolin-8-ylmethyl)octahydro-1H-pyrazino[2,1-c][1,2,4]triazine-1-carboxamide] here?
A: crystal C

Q: And the crystal form ([1]; crystal C + crystal D (100 mg each) in heptane/ethanol 16:3, 5° C., water added 0.5 mass %, water content 0.93%)?
A: crystal D

Q: What about the crystal form ([1]; crystal C + crystal D (100 mg each) in heptane/ethanol 16:3, 5° C., water added 1.0 mass %, water content 1.56%) of the same compound?
A: crystal D

Q: What about the crystal form ([1]; crystal C + crystal D (100 mg each) in heptane/ethanol 16:3, 40° C., water added 0 mass %, water content 0.33%) of the same compound?
A: crystal C

Q: And the crystal form ([1]; crystal C + crystal D (100 mg each) in heptane/ethanol 16:3, 40° C., water added 0.5 mass %, water content 0.94%)?
A: crystal D

Q: And the crystal form ([1]; crystal C + crystal D (100 mg each) in heptane/ethanol 16:3, 40° C., water added 1.0 mass %, water content 1.55%)?
A: crystal D

Q: What about the crystal form ([1]; crystal C + crystal D (100 mg each) in heptane/ethanol 16:3, room temperature, water added 0 mass %, water content 0.33%) of the same compound?
A: crystal C

Q: What about the crystal form ([1]; crystal C + crystal D (100 mg each) in heptane/ethanol 16:3, room temperature, water added 0.5 mass %, water content 0.93%) of the same compound?
A: crystal D

Q: And the crystal form ([1]; crystal C + crystal D (100 mg each) in heptane/ethanol 16:3, room temperature, water added 1.0 mass %, water content 1.57%)?
A: crystal D

Q: What about the crystal form obtained ([1]; crystal C + crystal D in heptane/ethanol 16:3, amount of water further added exceeded 2 mass %) of the same compound?
A: crystal A was obtained

Q: And the crystal form obtained ([1]; crystal C + crystal D in heptane/ethanol 16:3, water content less than 0.5%)?
A: crystal C was obtained

Q: What about the crystal form obtained ([1]; crystal C + crystal D in heptane/ethanol 16:3, water content not less than 0.5%) of the same compound?
A: crystal D was obtained

Q: And the “form of the crystal obtained” value ([2]; MTBE, 40° C.)?
A: crystal C

Q: And the “form of the crystal obtained” value ([2]; MTBE, room temperature)?
A: crystal C

Q: And the “form of the crystal obtained” value ([2]; ethyl acetate, 40° C.)?
A: crystal C

Q: And the “form of the crystal obtained” value ([2]; ethyl acetate, room temperature)?
A: crystal C

Q: What about the “form of the crystal obtained” value ([2]; isopropanol, 40° C.) of the same compound?
A: crystal C

Q: What about the “form of the crystal obtained” value ([2]; isopropanol, room temperature) of the same compound?
A: crystal C

Q: And the “form of the crystal obtained” value ([2]; isopropyl acetate, 40° C.)?
A: crystal C

Q: And the “form of the crystal obtained” value ([2]; isopropyl acetate, room temperature)?
A: crystal C

Q: What about the “form of the crystal obtained” value ([2]; water, 40° C.) of the same compound?
A: crystal A

Q: What about the “form of the crystal obtained” value ([2]; water, room temperature) of the same compound?
A: crystal A

Q: Which “variation in the mass (weight) with increasing relative humidity” value [3] does the source give for C[C@H]1C2N(C(=O)CN(C)N2C(=O)NCc2ccccc2)[C@@H](Cc2ccc(O)cc2)C(=O)N1Cc1cccc2cccnc12 (stereo partly drawn) [Comparative Example 1, (6S,9S)—N-benzyl-6-(4-hydroxybenzyl)-2,9-dimethyl-4,7-dioxo-8-(quinolin-8-ylmethyl)octahydro-1H-pyrazino[2,1-c][1,2,4]triazine-1-carboxamide] here?
A: weight increased along with an increase in the humidity

Q: Which results are given for C[C@H]1C2N(C(=O)CN(C)N2C(=O)NCc2ccccc2)[C@@H](Cc2ccc(O)cc2)C(=O)N1Cc1cccc2cccnc12 (stereo partly drawn) [crystal D, (6S,9S)—N-benzyl-6-(4-hydroxybenzyl)-2,9-dimethyl-4,7-dioxo-8-(quinolin-8-ylmethyl)octahydro-1H-pyrazino[2,1-c][1,2,4]triazine-1-carboxamide]?
A: crystal form after heating ([4]; 50° C.): A part of crystal D transits to an amorphous form; also recorded: mixture of crystal D; crystal form after heating ([4]; 70° C.): transits to an amorphous form; transition of crystal form [1, 6]: transition to crystal C occurred; also recorded: transits to crystal C

Q: With C[C@H]1C2N(C(=O)CN(C)N2C(=O)NCc2ccccc2)[C@@H](Cc2ccc(O)cc2)C(=O)N1Cc1cccc2cccnc12 (stereo partly drawn) [crystal A, (6S,9S)—N-benzyl-6-(4-hydroxybenzyl)-2,9-dimethyl-4,7-dioxo-8-(quinolin-8-ylmethyl)octahydro-1H-pyrazino[2,1-c][1,2,4]triazine-1-carboxamide] as the compound, how does the crystal form ([5]; crystal A slurry in MTBE) read?
A: transition did not occur; also recorded: crystal A

Q: And the crystal form ([5]; crystal A slurry in acetonitrile)?
A: transition did not occur; also recorded: crystal A

Q: And the crystal form ([5]; crystal A slurry in ethanol)?
A: transition to crystal C occurred gradually

Q: And the crystal form ([5]; crystal A slurry in ethyl acetate)?
A: transition to crystal C occurred gradually

Q: And the crystal form ([5]; crystal A slurry in isopropanol)?
A: transition to crystal C occurred gradually

Q: What about the crystal form ([5]; crystal A slurry in isopropyl acetate) of the same compound?
A: transition did not occur; also recorded: crystal A

Q: And the crystal form ([5]; crystal A slurry in methanol)?
A: transition to crystal B occurred

Q: What about the crystal form ([5]; crystal A slurry in methylethyl ketone) of the same compound?
A: transition did not occur; also recorded: crystal A

Q: And the crystal form ([5]; crystal A slurry in tetrahydrofuran)?
A: transition to an amorphous form occurred

Q: And the crystal form ([5]; crystal A slurry in water)?
A: transition did not occur; also recorded: crystal A

Q: What about the “relative stability to heat” value ([4]; crystal A versus crystal D, 50° C. overnight) of the same compound?
A: more stable to heat than crystal D

Q: What about the “crystal form after heating” value ([4]; 50° C.) of the same compound?
A: did not show transition; also recorded: not transited; also recorded: crystal A

Q: And the “crystal form after heating” value ([4]; 70° C.)?
A: transits to an amorphous form

Q: And the hygroscopicity [3]?
A: low

Q: And the “variation in the mass (weight) with increasing relative humidity” value ([3]; listed as Example 1)?
A: weight did not increase

Q: And the “relative stability among crystals A, B and C” value ([2]; water)?
A: most stable in water

Q: Which hygroscopicity [3] does the source give for C[C@H]1C2N(C(=O)CN(C)N2C(=O)NCc2ccccc2)[C@@H](Cc2ccc(O)cc2)C(=O)N1Cc1cccc2cccnc12 (stereo partly drawn) [crystal C, (6S,9S)—N-benzyl-6-(4-hydroxybenzyl)-2,9-dimethyl-4,7-dioxo-8-(quinolin-8-ylmethyl)octahydro-1H-pyrazino[2,1-c][1,2,4]triazine-1-carboxamide] here?
A: low

Q: What about the “variation in the mass (weight) with increasing relative humidity” value ([3]; listed as Example 3) of the same compound?
A: weight did not increase

Q: What about the “transition of crystal form” value [1, 6] of the same compound?
A: transition of crystal form did not occur; also recorded: not transited

Q: And the “transition of crystal form” value ([1]; single crystal form in heptane/ethanol (16:3) with water content of not less than 0.5%, left overnight)?
A: transited to crystal D

Q: And the “relative stability among crystals A, B and C” value ([2]; isopropanol, isopropyl acetate, MTBE or ethyl acetate)?
A: most stable in other nonaqueous solvents
